PubChem BioAssay AID256 (DTP/NCI, 2004)
Inconclusive results and toxic doses are left out. How the source made its calls: active means survival T/C of 150% or more; inactive means T/C below 125% in these data.

System: CD2F1 mice, L1210 leukemia ip, survival T/C
Test: NCI In Vivo Anticancer Drug Screen. Data for tumor model L1210 Leukemia (intraperitoneal) in CD2F1 (CDF1) mice
Settings: higher = longer survival
In short: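 Vehicle-treated tumor-bearing mice served as controls (C) for compound-treated mice (T). Reported figure is T divided by C.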

[1] = endpoint: mean survival time, dose: 100.0 mg/kg/injection, schedule: Q01DX001 (ip), vehicle: Klucel (hydroxypropylcellulose) (HPC)
[2] = endpoint: mean survival time, dose: 200.0 mg/kg/injection, schedule: Q01DX001 (ip), vehicle: Klucel (hydroxypropylcellulose) (HPC)
[3] = endpoint: mean survival time, dose: 400.0 mg/kg/injection, schedule: Q01DX001 (ip), vehicle: Klucel (hydroxypropylcellulose) (HPC)
[4] = endpoint: mean survival time, dose: 100.0 mg/kg/injection, schedule: Q04DX003 (ip), vehicle: saline with Tween-80
[5] = endpoint: mean survival time, dose: 200.0 mg/kg/injection, schedule: Q04DX003 (ip), vehicle: saline with Tween-80
[6] = endpoint: mean survival time, dose: 100.0 mg/kg/injection, schedule: Q01DX009 (ip), vehicle: saline with Tween-80
[7] = endpoint: mean survival time, dose: 200.0 mg/kg/injection, schedule: Q01DX009 (ip), vehicle: saline with Tween-80
[8] = endpoint: mean survival time, dose: 400.0 mg/kg/injection, schedule: Q01DX009 (ip), vehicle: saline with Tween-80
[9] = endpoint: mean survival time, dose: 100.0 mg/kg/injection, schedule: Q04DX003 (ip), vehicle: other
[10] = endpoint: mean survival time, dose: 200.0 mg/kg/injection, schedule: Q04DX003 (ip), vehicle: other
[11] = endpoint: mean survival time, dose: 400.0 mg/kg/injection, schedule: Q04DX003 (ip), vehicle: other
[12] = endpoint: mean survival time, dose: 100.0 mg/kg/injection, schedule: Q04DX002 (ip), vehicle: saline with Tween-80
[13] = endpoint: mean survival time, dose: 200.0 mg/kg/injection, schedule: Q04DX002 (ip), vehicle: saline with Tween-80
[14] = endpoint: mean survival time, dose: 400.0 mg/kg/injection, schedule: Q04DX002 (ip), vehicle: saline with Tween-80
[15] = endpoint: mean survival time, dose: 400.0 mg/kg/injection, schedule: Q04DX003 (ip), vehicle: saline with Tween-80
[16] = endpoint: mean survival time, dose: 75.0 mg/kg/injection, schedule: Q01DX001 (ip), vehicle: saline

Measured: T/C

Cc1cn(C2CC(O)C(COC(N)=O)O2)c(=O)[nH]c1=O (centres undefined)
inactive: [1] 116 % of control | [2] 92 % of control | [3] 104 % of control

C=C1C(=O)OC2CC3(C)OC3CC/C(C)=C/C(OC(C)=O)C12 (centres undefined)
inactive: [4] 105 % of control | [5] 91 % of control

O=C1SCCC1NP(=O)(Oc1ccccc1)Oc1ccccc1 (centres undefined)
inactive: [6] 93 % of control | [7] 103 % of control | [8] 93 % of control

Cc1cccc(Cl)c1NC(=O)C(C)C
inactive: [9] 94 % of control | [10] 91 % of control | [11] 87 % of control

CCCC(=O)Nc1ncnc2c1[nH]c(=O)n2C1OC2COP(=O)(O)OC2C1O (centres undefined)
inactive: endpoint: mean survival time, dose: 6.25 mg/kg/injection, schedule: Q01DX005 (ip), vehicle: water 97 % of control | endpoint: mean survival time, dose: 12.5 mg/kg/injection, schedule: Q01DX005 (ip), vehicle: water 97 % of control | endpoint: mean survival time, dose: 25.0 mg/kg/injection, schedule: Q01DX005 (ip), vehicle: water 93 % of control | endpoint: mean survival time, dose: 50.0 mg/kg/injection, schedule: Q01DX005 (ip), vehicle: water 93 % of control | endpoint: mean survival time, dose: 100.0 mg/kg/injection, schedule: Q01DX005 (ip), vehicle: water 95 % of control

CN1C(=O)C2CCC1C(O)C2 (centres undefined)
inactive: endpoint: mean survival time, dose: 25.0 mg/kg/injection, schedule: Q04DX002 (ip), vehicle: saline with Tween-80 98 % of control | endpoint: mean survival time, dose: 50.0 mg/kg/injection, schedule: Q04DX002 (ip), vehicle: saline with Tween-80 106 % of control | [12] 98 % of control | [13] 95 % of control

O=[As](O)(CC(O)COc1ccc(Cl)cc1Cl)c1cccc(Cl)c1 (centres undefined)
inactive: endpoint: mean survival time, dose: 6.25 mg/kg/injection, schedule: Q04DX003 (ip), vehicle: saline with Tween-80 98 % of control | endpoint: mean survival time, dose: 12.5 mg/kg/injection, schedule: Q04DX003 (ip), vehicle: saline with Tween-80 110 % of control

C[n+]1ccc(CCC(=O)Nc2ccccc2)cc1
inactive: [4] 100 % of control | [5] 100 % of control

Cc1ccc(C2=CC(=O)C(c3ccc(C)cc3C)=CC2=O)c(C)c1
inactive: endpoint: mean survival time, dose: 100.0 mg/kg/injection, schedule: Q01DX001 (ip), vehicle: saline with Tween-80 92 % of control | [12] 86 % of control | endpoint: mean survival time, dose: 200.0 mg/kg/injection, schedule: Q01DX001 (ip), vehicle: saline with Tween-80 91 % of control | [13] 93 % of control | endpoint: mean survival time, dose: 400.0 mg/kg/injection, schedule: Q01DX001 (ip), vehicle: saline with Tween-80 94 % of control | [14] 101 % of control

C#CCN(C)CCO
inactive: endpoint: mean survival time, dose: 100.0 mg/kg/injection, schedule: Q01DX009 (ip), vehicle: acetone 103 % of control | endpoint: mean survival time, dose: 200.0 mg/kg/injection, schedule: Q01DX009 (ip), vehicle: acetone 97 % of control | endpoint: mean survival time, dose: 400.0 mg/kg/injection, schedule: Q01DX009 (ip), vehicle: acetone 100 % of control

C[Si](C)c1cccc(Cl)c1
inactive: [6] 104 % of control | [7] 100 % of control

Nc1cccc2c1C(=O)c1ccccc1C2=O
inactive: [9] 97 % of control | [10] 92 % of control | [11] 95 % of control

CCOP(=O)(OCC)/C(C#N)=C\c1ccc(OC)c(OC)c1
inactive: [6] 98 % of control | [7] 94 % of control | [8] 100 % of control

O=C(COc1ccccc1[N+](=O)[O-])CN1C(=O)c2ccccc2C1=O
inactive: [12] 91 % of control | [13] 91 % of control | [14] 91 % of control

Cc1ccc(N2CC(O)CSC2=Nc2ccccc2)cc1 (centres undefined)
inactive: [1] 93 % of control | [2] 91 % of control | [3] 91 % of control

CCCCC[CH2][Sn](=[O])[CH2]CCCCC
inactive: [4] 100 % of control | [5] 97 % of control | [15] 111 % of control

O=C(O)c1[nH]c2c([N+](=O)[O-])cc([N+](=O)[O-])cc2c1C(=O)O
inactive: [16] 103 % of control | endpoint: mean survival time, dose: 150.0 mg/kg/injection, schedule: Q01DX001 (ip), vehicle: saline 97 % of control

O=C(NO)c1ccncc1
inactive: endpoint: mean survival time, dose: 50.0 mg/kg/injection, schedule: Q01DX001 (ip), vehicle: saline 106 % of control | endpoint: mean survival time, dose: 100.0 mg/kg/injection, schedule: Q01DX001 (ip), vehicle: saline 103 % of control | endpoint: mean survival time, dose: 100.0 mg/kg/injection, schedule: Q01DX009 (ip), vehicle: saline 102 % of control | endpoint: mean survival time, dose: 100.0 mg/kg/injection, schedule: Q04DX003 (ip), vehicle: saline 91 % of control | endpoint: mean survival time, dose: 200.0 mg/kg/injection, schedule: Q01DX001 (ip), vehicle: saline 110 % of control | endpoint: mean survival time, dose: 200.0 mg/kg/injection, schedule: Q01DX009 (ip), vehicle: saline 104 % of control | endpoint: mean survival time, dose: 200.0 mg/kg/injection, schedule: Q04DX003 (ip), vehicle: saline 94 % of control | endpoint: mean survival time, dose: 400.0 mg/kg/injection, schedule: Q01DX001 (ip), vehicle: saline 97 % of control | endpoint: mean survival time, dose: 400.0 mg/kg/injection, schedule: Q01DX009 (ip), vehicle: saline 107 % of control | endpoint: mean survival time, dose: 400.0 mg/kg/injection, schedule: Q04DX003 (ip), vehicle: saline 94 % of control

[N-]=[N+]=NC1CC(n2ccc(=O)[nH]c2=O)OC1CO (centres undefined)
inactive: endpoint: median survival time, dose: 12.5 mg/kg/injection, schedule: Q01DX005 (ip), vehicle: saline 101 % of control | endpoint: median survival time, dose: 25.0 mg/kg/injection, schedule: Q01DX005 (ip), vehicle: saline 102 % of control | endpoint: median survival time, dose: 50.0 mg/kg/injection, schedule: Q01DX005 (ip), vehicle: saline 100 % of control | endpoint: median survival time, dose: 100.0 mg/kg/injection, schedule: Q01DX005 (ip), vehicle: saline 94 % of control | endpoint: median survival time, dose: 200.0 mg/kg/injection, schedule: Q01DX005 (ip), vehicle: saline 100 % of control

C/C(=N\O)C(C)(O)C(C)(C)C (centres undefined)
inactive: [4] 90 % of control | [5] 98 % of control | [15] 93 % of control

CCCNCCNc1ccc(NCCNCCC)c2c1C(=O)c1ccccc1C2=O
inactive: endpoint: mean survival time, dose: 4.0 mg/kg/injection, schedule: Q01DX009 (ip), vehicle: acid diluted with saline 100 % of control | endpoint: mean survival time, dose: 8.0 mg/kg/injection, schedule: Q01DX009 (ip), vehicle: acid diluted with saline 110 % of control | endpoint: mean survival time, dose: 16.0 mg/kg/injection, schedule: Q01DX009 (ip), vehicle: acid diluted with saline 110 % of control | endpoint: mean survival time, dose: 32.0 mg/kg/injection, schedule: Q01DX009 (ip), vehicle: acid diluted with saline 93 % of control

S=c1[nH]c2ccccc2[nH]c1=S
inactive: endpoint: mean survival time, dose: 10.0 mg/kg/injection, schedule: Q01DX001 (ip), vehicle: Klucel (hydroxypropylcellulose) (HPC) 103 % of control | endpoint: mean survival time, dose: 20.0 mg/kg/injection, schedule: Q01DX001 (ip), vehicle: Klucel (hydroxypropylcellulose) (HPC) 108 % of control

O=CNc1ccc(I)cc1
inactive: [4] 106 % of control | [5] 98 % of control | [15] 101 % of control

NNC(=O)c1cccc([N+](=O)[O-])c1
inactive: [16] 109 % of control

CC(C)CCOC(=O)CN(CC(=O)OCCC(C)C)c1ccccc1
inactive: [6] 89 % of control | [4] 95 % of control | [7] 91 % of control | [5] 97 % of control | [8] 97 % of control | [15] 105 % of control

CC(CN=Cc1ccccc1[O-])N=Cc1ccccc1[O-].[O]=[V] (centres undefined)
inactive: endpoint: mean survival time, dose: 5.0 mg/kg/injection, schedule: Q04DX003 (ip), vehicle: saline with Tween-80 90 % of control | endpoint: mean survival time, dose: 10.0 mg/kg/injection, schedule: Q04DX003 (ip), vehicle: saline with Tween-80 94 % of control | endpoint: mean survival time, dose: 20.0 mg/kg/injection, schedule: Q04DX003 (ip), vehicle: saline with Tween-80 90 % of control
